Reference: patent publication US9556217B2, “Amphiphilic compounds” (WISCONSIN ALUMNI RESEARCH FOUNDATION, priority 2012, dated 2017)

Tests used:
[1] = tested on: leucine transporter (LeuT); assay: LeuT functional assay ([3H]-Leu binding, SPA); format: biochemical, Aquifex aeolicus; details: CMC+0.04 wt % or CMC+0.2 wt %
Description: The new amphiphiles were then evaluated for the ability to maintain the leucine transporter (LeuT) from Aquifex aeolicus in a functional state (Quick and Javitch, Proc. Natl. Acad. Sci. USA 2007, 104, 3603-3608). The transporter was initially extracted with DDM and then diluted with amphiphile-containing solutions to generate amphiphile concentration of CMC+0.04 wt % or CMC+0.2 wt %. At both concentrations, GDN was very effective at maintaining LeuT activity, as indicated by binding of radiolabeled leucine, with preservation of >95% of initial activity after 12 days (FIG. 5c).
LeuT functionality was measured according to the procedure reported by Chae and coworkers (Nat. Methods 2010, 7, 1003-1008).
LeuT activity was measured according to the reported procedure (Chae et al., J. Am. Chem. Soc. 2010, 132, 16750-16752). […] Following protein storage at RT, at the indicated time points, samples were centrifuged and the protein concentration was assessed by determining absorbance at 280 nm. Concomitantly, for the corresponding time points, [^3H]-Leu binding was measured using scintillation proximity assay (SPA). […] Binding was assessed in 200 mM NaCl in the presence of tested compounds at the above-mentioned concentrations, and monitored using MicroBeta liquid scintillation counter (PerkinElmer).

[2] = molecular target: T1, Bacteriorhodopsin (bR) (Halobacterium salinarum, UniProt P02945); assay: Bacteriorhodopsin stability (absorbance at 554 nm); details: 0.2 wt % OTG+1.6 wt % agent, RT; for Maintaining the native structure of bR compared with conventional detergents: absorbance at 554 nm over 20 days
T1 construct: Frozen aliquots of purple membranes containing bR at 184 μM were thawed at room temperature; endogenous in cells; host or cells: purple membranes (native)
T1 sequence (P02945 14-261 limits assumed): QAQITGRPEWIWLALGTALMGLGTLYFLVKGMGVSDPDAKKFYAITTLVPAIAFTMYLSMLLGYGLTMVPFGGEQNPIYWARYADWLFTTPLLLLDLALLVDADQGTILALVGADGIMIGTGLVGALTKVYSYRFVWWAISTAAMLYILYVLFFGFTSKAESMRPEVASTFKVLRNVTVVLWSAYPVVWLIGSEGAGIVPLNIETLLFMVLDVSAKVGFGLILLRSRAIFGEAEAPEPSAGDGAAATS
Description: bR was extracted from the native purple membrane with 2.0 wt % octyl-β-D-thioglucoside (OTG) (see Bazzacco at al., Biomacromolecules 2009, 10, 3317-3326). Following ultracentrifugation to remove insoluble debris, the bR solution was diluted with amphiphile solutions to give 0.2 wt % OTG+1.6 wt % new agent or DDM. The absorbance of the solutions at 554 nm was measured periodically over 20 days. […] When the assay was conducted at a lower amphiphile concentration, 0.2 wt % OTG+0.8 wt % new agent or DDM, similar results were obtained (FIG. 3).
The procedure for the bR stability assay followed the protocol reported by Bazzacco and coworkers (Biomacromolecules 2009, 10, 3317-3326).
The procedure for the bR stability assay generally followed the reported protocol (Bazzacco et al., Biomacromolecules 2009, 10, 3317-3326). Frozen aliquots of purple membranes containing bR at 184 μM were thawed at room temperature and solubilized by using an octylthioglucoside (OTG) solution for 24 hr at 4° C. in a dark room. For this purpose, OTG (CMC=0.28 wt %) was used at 2.0 wt % in 10 mM sodium phosphate (pH 6.9). Membrane debris was then removed from the solubilized material via ultracentrifugation at 200,000 g at 4° C. for 20 min. The supernatant, including bR protein, was transferred into individual DDM, GLC, or GDN solutions, giving final concentration of OTG: new amphiphiles=0.2 wt %: 0.8 wt % (1:4) or 0.2 wt %:1.6 wt % (1:8). The stability of bR in each solution was monitored by measuring absorbance at 554 nm over 20 days.

SMILES	Maintaining LeuT activity over 12 days ([1]; RT)	Loss in bR protein integrity after 20 days ([2]; absorbance at 554 nm)	Maintaining the native structure of bR compared with conventional detergents [2]	LeuT activity preserved, % of initial activity ([1]; after 12 days at RT) [%]
CCCCCCCCCCCCO[C@@H]1O[C@H](CO)[C@@H](O[C@H]2O[C@H](CO)[C@@H](O)[C@H](O)[C@H]2O)[C@H](O)[C@H]1O [DDM, dodecyl-β-D-maltoside, reference compound]	lost significant activity	–	–	–
C[C@@H]1CC[C@@]2(OC1)O[C@H]1C[C@H]3[C@@H]4CC=C5C[C@@H](OCCC(CO[C@@H]6OC(CO)[C@@H](O[C@H]7OC(CO)[C@@H](O)C(O)C7O)C(O)C6O)CO[C@@H]6OC(CO)[C@@H](O[C@H]7OC(CO)[C@@H](O)C(O)C7O)C(O)C6O)CC[C@]5(C)[C@H]4CC[C@]3(C)[C@@H]1[C@@H]2C (some centres unmarked) [GDN, glyco-diosgenin]	–	negligible loss in protein integrity	more effective than conventional detergents OTG and DDM	> 95
CO[C@@H]1CC[C@@]2(C)[C@H](CC[C@@H]3[C@@H]2CC[C@]2(C)[C@@H]([C@H](C)CCCOCC(C)(CO[C@@H]4OC(CO)C(O[C@@H]5OC(CO)[C@@H](O)[C@H](O)C5O)[C@@H](O)C4O)CO[C@@H]4OC(CO)[C@@H](O[C@H]5OC(CO)[C@@H](O)[C@H](O)C5O)[C@H](O)C4O)CC[C@@H]32)C1 (some centres unmarked) [GLC-2]	–	–	more effective than conventional detergents OTG and DDM	–
